The text below walks through data of US10577378B2, “EIF4A-inhibiting compounds and methods related thereto” (eFFECTOR Therapeutics, Inc., priority 2015, dated 2020).

Molecules are shown by their SMILES.

The assay deals with MDA-MB-231 human breast cancer cells. Description: Cell proliferation assay (CellTiter-Glo, 72 hours treatment). It counts as cell-based. To be noted: Homo sapiens; MDA-MB-231 cells, 72 hours at 37° C., CellTiter-Glo; read-out: MDA-MB-231 cell proliferation assay (IC50). The method in brief:
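IC50 categories: under 100 nM +++, 100–1000 nM ++, above 1000 nM +, derived by sigmoidal curve fitting of CellTiter-Glo luminescence. Cells plated at 2,500 per well, dosed the following day and exposed 72 h at 37 °C versus DMSO control.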
In general terms: ATP-based viability assays read luminescence as a measure of living cells.
As for `COc1cncc2c1[C@]1(O)[C@H](O)[C@H](CN(C)C3COC3)[C@@H](c3ccccc3)[C@]1(c1ccc(C#N)cc1)O2` (racemic) [238F, Rac-4-((4bS,5R,6S,7S,7aR)-4b,5-dihydroxy-4-methoxy-6-((methyl(oxetan-3-yl)amino)methyl)-7-phenyl-4b,5,6,7-tetrahydro-7aH-cyclopenta[4,5]furo[2,3-c]pyridin-7a-yl)benzonitrile], the IC50 lay within 100 to 1000 nM.

For `COc1cncc2c1[C@]1(O)[C@H](O)[C@H](C(=O)NC3COC3)[C@@H](c3ccccc3)[C@]1(c1ccc(Br)cc1)O2` (racemic) [239F, Rac-(4bS,5R,6R,7S,7aR)-7a-(4-bromophenyl)-4b,5-dihydroxy-4-methoxy-N-(oxetan-3-yl)-7-phenyl-4b,6,7,7a-tetrahydro-5H-cyclopenta[4,5]furo[2,3-c]pyridine-6-carboxamide], the IC50 was less than 100 nM.

As for `COc1cncc2c1[C@]1(O)[C@H](O)[C@H](CNC3COC3)[C@@H](c3ccccc3)[C@]1(c1ccc(C#N)cc1)O2` (racemic) [240F, Rac-4-((4bS,5R,6S,7S,7aR)-4b,5-dihydroxy-4-methoxy-6-((oxetan-3-ylamino)methyl)-7-phenyl-4b,5,6,7-tetrahydro-7aH-cyclopenta[4,5]furo[2,3-c]pyridin-7a-yl)benzonitrile], the IC50 lay in the range of 100 to 1000 nM.

With `COc1cncc2c1[C@]1(O)[C@H](O)[C@H](C(=O)NCc3ccnn3C)[C@@H](c3ccccc3)[C@]1(c1ccc(Br)cc1)O2` (racemic) [241F, rac-(4bS,5R,6R,7S,7aR)-7a-(4-bromophenyl)-4b,5-dihydroxy-4-methoxy-N-((1-methyl-1H-pyrazol-5-yl)methyl)-7-phenyl-4b,6,7,7a-tetrahydro-5H-cyclopenta[4,5]furo[2,3-c]pyridine-6-carboxamide], the IC50 was less than 100 nM.

For `COc1cncc2c1[C@]1(O)[C@H](O)[C@H](CNCc3ccnn3C)[C@@H](c3ccccc3)[C@]1(c1ccc(C#N)cc1)O2` (racemic) [242F, Rac-4-((4bS,5R,6S,7S,7aR)-4b,5-dihydroxy-4-methoxy-6-((((1-methyl-1H-pyrazol-5-yl)methyl)amino)methyl)-7-phenyl-4b,5,6,7-tetrahydro-7aH-cyclopenta[4,5]furo[2,3-c]pyridin-7a-yl)benzonitrile], the IC50 was 100 to 1000 nM.

For the compound `COc1cncc2c1[C@]1(O)[C@H](O)[C@H](CNC3CC3)[C@@H](c3ccccc3)[C@]1(c1ccc(C#N)cc1)O2` (racemic) [244F, Rac-4-((4bS,5R,6S,7S,7aR)-6-((cyclopropylamino)methyl)-4b,5-dihydroxy-4-methoxy-7-phenyl-4b,5,6,7-tetrahydro-7aH-cyclopenta[4,5]furo[2,3-c]pyridin-7a-yl)benzonitrile], the IC50 is less than 100 nM.

With `COc1cncc2c1[C@]1(O)[C@H](O)[C@H](C(=O)N(C)C3CC3)[C@@H](c3ccccc3)[C@]1(c1ccc(Br)cc1)O2` (racemic) [245F, Rac-(4bS,5R,6R,7S,7aR)-7a-(4-bromophenyl)-N-cyclopropyl-4b,5-dihydroxy-4-methoxy-N-methyl-7-phenyl-4b,6,7,7a-tetrahydro-5H-cyclopenta[4,5]furo[2,3-c]pyridine-6-carboxamide], the IC50 lay in the range of 100 to 1000 nM.

In the case of `COc1cncc2c1[C@]1(O)[C@H](O)[C@H](CN(C)C3CC3)[C@@H](c3ccccc3)[C@]1(c1ccc(C#N)cc1)O2` (racemic) [246F, Rac-4-((4bS,5R,6S,7S,7aR)-6-((cyclopropyl(methyl)amino)methyl)-4b,5-dihydroxy-4-methoxy-7-phenyl-4b,5,6,7-tetrahydro-7aH-cyclopenta[4,5]furo[2,3-c]pyridin-7a-yl)benzonitrile], the IC50 fell in the range of 100 to 1000 nM.

As for `COc1cncc2c1[C@]1(O)[C@H](O)[C@H](C(=O)N(C)CCF)[C@@H](c3ccccc3)[C@]1(c1ccc(Br)cc1)O2` (racemic) [247F, Rac-(4bS,5R,6R,7S,7aR)-7a-(4-bromophenyl)-N-(2-fluoroethyl)-4b,5-dihydroxy-4-methoxy-N-methyl-7-phenyl-4b,6,7,7a-tetrahydro-5H-cyclopenta[4,5]furo[2,3-c]pyridine-6-carboxamide], the IC50 was less than 100 nM.

For `COc1cncc2c1[C@]1(O)[C@H](O)[C@H](C(=O)N(C)Cc3ccnn3C)[C@@H](c3ccccc3)[C@]1(c1ccc(Br)cc1)O2` (racemic) [249F, Rac-(4bS,5R,6R,7S,7aR)-7a-(4-bromophenyl)-4b,5-dihydroxy-4-methoxy-N-methyl-N-((1-methyl-1H-pyrazol-5-yl)methyl)-7-phenyl-4b,6,7,7a-tetrahydro-5H-cyclopenta[4,5]furo[2,3-c]pyridine-6-carboxamide], the IC50 was less than 100 nM.

With `COc1cncc2c1[C@]1(O)[C@H](O)[C@H](C(=O)N(C)CC(C)(C)O)[C@@H](c3ccccc3)[C@]1(c1ccc(Br)cc1)O2` (racemic) [251F, Rac-(4bS,5R,6R,7S,7aR)-7a-(4-bromophenyl)-4b,5-dihydroxy-N-(2-hydroxy-2-methylpropyl)-4-methoxy-N-methyl-7-phenyl-4b,6,7,7a-tetrahydro-5H-cyclopenta[4,5]furo[2,3-c]pyridine-6-carboxamide], the IC50 was less than 100 nM.

For `COc1cncc2c1[C@]1(O)[C@H](O)[C@H](C(=O)NCC(C)(C)O)[C@@H](c3ccccc3)[C@]1(c1ccc(Br)cc1)O2` (racemic) [253F, Rac-(4bS,5R,6R,7S,7aR)-7a-(4-bromophenyl)-4b,5-dihydroxy-N-(2-hydroxy-2-methylpropyl)-4-methoxy-7-phenyl-4b,6,7,7a-tetrahydro-5H-cyclopenta[4,5]furo[2,3-c]pyridine-6-carboxamide], the IC50 is less than 100 nM.

`COc1cncc2c1[C@]1(O)[C@H](O)[C@H](C(=O)N(C)C)[C@@H](c3ccccc3)[C@]1(c1ccc(C)cc1)O2` (racemic) [255F, rac-(4bS,5R,6R,7S,7aR)-4b,5-dihydroxy-4-methoxy-N,N-dimethyl-7-phenyl-7a-(p-tolyl)-4b,6,7,7a-tetrahydro-5H-cyclopenta[4,5]furo[2,3-c]pyridine-6-carboxamide]: the IC50 fell in the range of 100 to 1000 nM.

For `COc1cncc2c1[C@]1(O)[C@H](O)[C@H](C(=O)N3CCCCC3)[C@@H](c3ccccc3)[C@]1(c1ccc(Br)cc1)O2` (racemic) [257F, Rac-((4bS,5R,6R,7S,7aR)-7a-(4-bromophenyl)-4b,5-dihydroxy-4-methoxy-7-phenyl-4b,6,7,7a-tetrahydro-5H-cyclopenta[4,5]furo[2,3-c]pyridin-6-yl)(piperidin-1-yl)methanone], the IC50 was less than 100 nM.

Take `COc1cncc2c1[C@]1(O)[C@H](O)[C@H](CNCCF)[C@@H](c3ccccc3)[C@]1(c1ccc(C#N)cc1)O2` (racemic) [259F, Rac-4-((4bS,5R,6S,7S,7aR)-6-(((2-fluoroethyl)amino)methyl)-4b,5-dihydroxy-4-methoxy-7-phenyl-4b,5,6,7-tetrahydro-7aH-cyclopenta[4,5]furo[2,3-c]pyridin-7a-yl)benzonitrile]: the IC50 lay within 100 to 1000 nM.

For the compound `COCCN(C)C(=O)[C@H]1[C@@H](O)[C@@]2(O)c3c(OC)cncc3O[C@@]2(c2ccc(Br)cc2)[C@@H]1c1ccccc1` (racemic) [260F, rac-(4bS,5R,6R,7S,7aR)-7a-(4-bromophenyl)-4b,5-dihydroxy-4-methoxy-N-(2-methoxyethyl)-N-methyl-7-phenyl-4b,6,7,7a-tetrahydro-5H-cyclopenta[4,5]furo[2,3-c]pyridine-6-carboxamide], the IC50 was less than 100 nM.
